Columns and labels:
[1] = test system: male C57BL/6 mice; test: ORG 43553 in male C57BL/6 mice, 9 weeks (Example 8, incl. replication cohort); type: in vivo, mouse
Procedure: Next, the LHCGR agonist ORG 43553 was injected into male C57BL/6 mice (N=24/group) (17 mg/kg, subcutaneous, twice-a-week) for 9 weeks.

[2] = test system: C57BL/6 mice fed on high-fat diet; test: ORG 43553 in C57BL/6 mice on high-fat diet, 9 weeks (Example 6); type: in vivo, mouse; details: 17 mg/kg subcutaneous
Procedure: In order to evaluate the effect of treatment with LHCGR agonist ORG 43553 on body fat in mice, 14-week-old C57BL/6 mice (25 mice/group) were treated with subcutaneous injections of vehicle or ORG 43553 (17 mg/kg), and fed on high-fat diet for 9 weeks.

[3] = test system: organoids derived from 3T3-L1 cells; test: adipose organoids derived from 3T3-L1 cells, thickness of differentiating cell layer; type: cell-based, mouse; details: exposed for 3 days, further differentiated 7 days
Procedure: (§1) In order to study the mechanism of LHCGR activation on body fat, 3T3.L1 pre-adipocytes and adipose organoids were used. Oil Red 0 staining can be used to mark lipid-containing vacuoles and quantify cell lipid content. […] The thickness of the “differentiating cell layer” was measured with QuPath-0.2.3.

[4] = test system: mice on high-fat diet; test: metabolic cages, mice on high-fat diet; type: in vivo, mouse; details: 17 mg/kg subcutaneous, monitored for 48 hours
Procedure: (§2) 3T3-L1 adipocytes were thus pretreated with ORG 43553 for 1 hour before measuring oxygen consumption rate (OCR) on a Seahorse Xf96 Analyzer. […] ORG 43553 increased OCR at baseline and upon oligomycin exposure, indicating mitochondria proton leak—a surrogate for thermogenesis. To confirm increased energy expenditure in vivo, mice (N=6/group) on high-fat diet were acclimated to metabolic cages for 1 day, before being injected subcutaneously with ORG 43553 (17 mg/kg, blue line) or vehicle and monitored for 48 hours.

[5] = test system: 3T3-L1 adipocytes; test: oil droplet accumulation (Oil Red O staining) in 3T3-L1 adipocytes; type: cell-based, mouse; details: 6 nM, 12 hours
Procedure: as §1

[6] = test system: 3T3-L1 adipocytes; test: oxygen consumption rate (OCR) on Seahorse Xf96 Analyzer; type: cell-based, mouse; details: pretreated for 1 hour
Procedure: as §2

[7] = biological target: human LHCGR (Homo sapiens, UniProt P22888); details: read-out: EC50, agonistic activity to human LHCGR; cited from earlier work
[8] = biological target: T1, adipose LHCGR (Mus musculus, UniProt P30730); test: ERK1/2 phosphorylation in differentiated 3T3-L1 adipocytes (Western blot); type: cell-based
T1 construct: host or cells: differentiated 3T3-L1 adipocytes
Excerpt: siRNA KNOCKDOWN: Lentiviral vectors expressing Lhcgr siRNA (ABM 2649609) or siControl (ABM LVP015-G) were used per manufacturer's recommendation.
WESTERN BLOTTING: Proteins were blotted with commercial antibodies (Cell Signaling, Phospho-ERK1/2, 9101S; ERK1/2, 4695S, 1:5000).

[9] = 17 mg/kg subcutaneous twice-a-week, 9 weeks

T1 sequence (P30730 27-700): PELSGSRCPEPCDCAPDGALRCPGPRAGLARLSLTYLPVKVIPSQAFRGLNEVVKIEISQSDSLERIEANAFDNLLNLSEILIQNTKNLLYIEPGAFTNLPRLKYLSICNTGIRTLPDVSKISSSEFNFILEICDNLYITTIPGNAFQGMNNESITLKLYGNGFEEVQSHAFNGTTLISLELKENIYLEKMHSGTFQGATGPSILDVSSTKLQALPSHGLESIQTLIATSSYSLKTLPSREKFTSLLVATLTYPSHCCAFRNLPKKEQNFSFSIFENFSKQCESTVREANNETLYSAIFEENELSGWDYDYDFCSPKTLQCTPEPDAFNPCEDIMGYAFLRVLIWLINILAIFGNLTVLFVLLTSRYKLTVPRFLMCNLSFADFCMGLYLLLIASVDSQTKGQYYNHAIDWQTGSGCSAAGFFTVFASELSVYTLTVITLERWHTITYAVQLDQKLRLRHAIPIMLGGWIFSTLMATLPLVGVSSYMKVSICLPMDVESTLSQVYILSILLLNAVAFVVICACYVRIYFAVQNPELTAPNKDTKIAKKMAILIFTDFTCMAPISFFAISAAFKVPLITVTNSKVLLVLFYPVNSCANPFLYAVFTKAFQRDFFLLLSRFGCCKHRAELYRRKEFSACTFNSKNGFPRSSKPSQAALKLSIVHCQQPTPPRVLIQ
human LHCGR, sequence (P22888 27-699): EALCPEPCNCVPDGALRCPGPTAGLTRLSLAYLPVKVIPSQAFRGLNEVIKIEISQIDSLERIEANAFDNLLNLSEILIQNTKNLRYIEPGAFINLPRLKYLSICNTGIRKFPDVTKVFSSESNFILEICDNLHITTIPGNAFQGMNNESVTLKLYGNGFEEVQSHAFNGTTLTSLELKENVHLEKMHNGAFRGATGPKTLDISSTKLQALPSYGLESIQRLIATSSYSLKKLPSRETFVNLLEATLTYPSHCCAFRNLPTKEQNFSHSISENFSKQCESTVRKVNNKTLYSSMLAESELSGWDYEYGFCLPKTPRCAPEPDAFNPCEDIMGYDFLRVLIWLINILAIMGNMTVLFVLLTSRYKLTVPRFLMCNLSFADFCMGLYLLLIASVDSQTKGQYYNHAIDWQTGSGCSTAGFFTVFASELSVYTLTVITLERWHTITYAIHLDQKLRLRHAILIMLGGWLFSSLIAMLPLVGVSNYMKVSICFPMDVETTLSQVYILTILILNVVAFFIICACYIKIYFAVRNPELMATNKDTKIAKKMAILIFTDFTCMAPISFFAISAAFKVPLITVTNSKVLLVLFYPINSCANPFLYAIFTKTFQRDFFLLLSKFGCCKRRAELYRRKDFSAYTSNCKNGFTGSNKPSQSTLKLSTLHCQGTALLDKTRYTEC

CSc1nc(-c2cccc(NC(=O)CN3CCOCC3)c2)c2c(N)c(C(=O)NC(C)(C)C)sc2n1 [ORG 43553, 5-amino-2-methylsulfanyl-4-[3-(2-morpholin-4-yl-acetylamino)-phenyl]-thieno[2,3-d]pyrimidine-6-carboxylic acid tert-butylamide]
fat mass [1, 9]: significant reduction | gWAT [1, 9]: reduced | iWAT [1, 9]: reduced | number of adipocytes in iWAT with areas below 4000 μm^2 [1, 9]: greater numbers | number of adipocytes in iWAT with areas greater than 4000 μm^2 [1, 9]: fewer | renal WAT (rWAT) [1, 9]: reduced | fat mass ([1]; replication cohort): significant reduction | gWAT ([1]; replication cohort): reduced | iWAT ([1]; replication cohort): reduced | mWAT ([1]; replication cohort): reduced | total mass ([1]; replication cohort): significant reduction | diet-induced fat mass [2]: reduced | gWAT weight [2]: lower | iWAT weight [2]: lower | lean mass [2]: but not lean mass | mWAT weight [2]: lower | total mass [2]: reduced | differentiated layer of organoids (thickness) compared to vehicle-treated organoids [3]: substantial reduction | energy expenditure (EE) [4]: increased acutely | oxygen consumption (VO2) [4]: increased acutely | oil droplet accumulation (Oil Red O staining) [5]: reduced oil droplet accumulation | oxygen consumption rate (OCR) at baseline [6]: increased | oxygen consumption rate (OCR) upon oligomycin exposure [6]: increased | EC50 [7]: 3.7 nM | ERK1/2 phosphorylation ([8]; differentiated 3T3-L1 adipocytes): rapidly induced ERK1/2 phosphorylation in a concentration-dependent manner | ERK1/2 phosphorylation with LHCGR siRNA knockdown ([8]; siLhcgr 3T3-L1 cells): no signal
